As a reminder, the IC50 is the midpoint of a concentration-inhibition curve.

Common to all, as to type: binding
Assay [1] deals with T1, GT198 DBD fragment 126-217 (Homo sapiens, UniProt Q9P2W1).
T1 construct: gene PSMC3IP
T1 sequence (Q9P2W1 126-217): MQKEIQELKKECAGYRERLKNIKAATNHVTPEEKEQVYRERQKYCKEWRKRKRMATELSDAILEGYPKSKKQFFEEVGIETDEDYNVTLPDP
The experiment in a line: competition with Oregon green-taxol on protein-coated plates, fluorescence.

The target of assay [2] is T1, GT198 DBD fragment 126-217. The assay can be described thus: competition with biotinylated ssDNA on protein-coated plates, streptavidin-HRP chemiluminescence.
Assay [3] has as its target T2, GT198 (wild type full length, His-tagged) (Homo sapiens, UniProt Q9P2W1).
T2 construct: gene PSMC3IP; full length aa 1-217, N-terminal His tag kept, E. coli BL21(DE3)pLysS, Ni-NTA; homodimer
T2 sequence (Q9P2W1 1-217): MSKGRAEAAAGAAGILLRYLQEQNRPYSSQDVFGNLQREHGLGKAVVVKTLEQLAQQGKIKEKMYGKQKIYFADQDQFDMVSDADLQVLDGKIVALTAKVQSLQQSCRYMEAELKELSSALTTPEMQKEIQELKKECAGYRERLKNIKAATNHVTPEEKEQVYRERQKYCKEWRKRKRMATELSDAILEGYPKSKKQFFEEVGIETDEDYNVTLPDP
The assay can be described thus: competition with Oregon green-taxol on protein-coated plates, fluorescence.

Assay [4] addresses T2, GT198 (wild type full length, His-tagged). The assay can be described thus: competition with biotinylated ssDNA on protein-coated plates, streptavidin-HRP chemiluminescence.

Regarding `CC(=O)O[C@H]1C(=O)[C@@]2(C)[C@H]([C@H](OC(=O)c3ccccc3)[C@]3(O)C[C@H](OC(=O)[C@H](O)[C@@H](NC(=O)c4ccccc4)c4ccccc4)C(C)=C1C3(C)C)[C@]1(OC(C)=O)CO[C@@H]1C[C@@H]2O` [taxol], the IC50 in assay [1] worked out at 15.2 nM; in assay [2], 7.3 nM; in assay [3], 8.8 nM; in assay [4], 8.6 nM.

The record behind these values is paper doi:10.1101/675579v1, “Oncoprotein GT198 is a direct target of taxol” (biorxiv, 2019).
